# “And” between values parts separate entries of the source, which are not always exact repeats. Identical values can stand only once. Inconclusive results and toxic doses are left out.
# Test system: B6C3F1 mice, B16 melanoma ip, median survival T/C
# Assay: NCI In Vivo Anticancer Drug Screen. Data for tumor model B16 Melanoma (intraperitoneal) in B6C3F1 mice
# Details: endpoint: median survival time, schedule: Q01DX009 (ip), higher = longer survival
# Summary of the method: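 Tumor-bearing mice received test compound; a separate group got vehicle only. Survival was then compared, with results reported as treated over control.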
# [1] = dose: 6.25 mg/kg/injection, vehicle: Klucel (hydroxypropylcellulose) (HPC)
# [2] = dose: 12.5 mg/kg/injection, vehicle: Klucel (hydroxypropylcellulose) (HPC)
# [3] = dose: 25.0 mg/kg/injection, vehicle: saline
# [4] = dose: 25.0 mg/kg/injection, vehicle: water
# [5] = dose: 50.0 mg/kg/injection, vehicle: saline
# [6] = dose: 100.0 mg/kg/injection, vehicle: saline
# [7] = dose: 200.0 mg/kg/injection, vehicle: saline
# [8] = dose: 400.0 mg/kg/injection, vehicle: saline
# [9] = dose: 800.0 mg/kg/injection, vehicle: saline
# [10] = dose: 6.25 mg/kg/injection, vehicle: saline with Tween-80
# [11] = dose: 12.5 mg/kg/injection, vehicle: saline with Tween-80
# [12] = dose: 25.0 mg/kg/injection, vehicle: saline with Tween-80
# [13] = dose: 50.0 mg/kg/injection, vehicle: saline with Tween-80
# [14] = dose: 25.0 mg/kg/injection, vehicle: Klucel (hydroxypropylcellulose) (HPC)
# [15] = dose: 50.0 mg/kg/injection, vehicle: Klucel (hydroxypropylcellulose) (HPC)
# [16] = dose: 100.0 mg/kg/injection, vehicle: Klucel (hydroxypropylcellulose) (HPC)
# [17] = dose: 6.25 mg/kg/injection, vehicle: other
# [18] = dose: 12.5 mg/kg/injection, vehicle: other
# [19] = dose: 25.0 mg/kg/injection, vehicle: other
structure (smiles),measurement,setting,value
COC(=O)C1OC(OC2=C(c3ccc(OC)cc3)C(=O)C(OC3OC(C(=O)OC)C(OC(C)=O)C(OC(C)=O)C3OC(C)=O)=C(c3ccc(OC)cc3)C2=O)C(OC(C)=O)C(OC(C)=O)C1OC(C)=O (stereo unspecified),T/C,"dose: 0.78 mg/kg/injection, vehicle: Klucel (hydroxypropylcellulose) (HPC)",109 % of control
same,T/C,"dose: 1.56 mg/kg/injection, vehicle: Klucel (hydroxypropylcellulose) (HPC)",109 % of control
same,T/C,"dose: 3.13 mg/kg/injection, vehicle: Klucel (hydroxypropylcellulose) (HPC)",99 % of control
same,T/C,[1],102 % of control
same,T/C,[2],93 % of control
C=C(C)C(=O)O[C@H]1CC2=C[C@@H](C[C@@]3(C)O[C@@H]3[C@H]3OC(=O)C(=C)[C@@H]31)OC2=O,T/C,"dose: 3.75 mg/kg/injection, vehicle: Klucel (hydroxypropylcellulose) (HPC)",101 % of control
same,T/C,"dose: 7.5 mg/kg/injection, vehicle: Klucel (hydroxypropylcellulose) (HPC)",107 % of control
same,T/C,"dose: 15.0 mg/kg/injection, vehicle: Klucel (hydroxypropylcellulose) (HPC)",103 % of control
F[B-](F)(F)F,T/C,"dose: 12.5 mg/kg/injection, vehicle: gum acacia",99 % of control
same,T/C,"dose: 25.0 mg/kg/injection, vehicle: gum acacia",118 % of control
same,T/C,"dose: 50.0 mg/kg/injection, vehicle: gum acacia",100 % of control and 106 % of control
same,T/C,"dose: 100.0 mg/kg/injection, vehicle: gum acacia",98 % of control and 106 % of control
same,T/C,"dose: 200.0 mg/kg/injection, vehicle: gum acacia",108 % of control and 112 % of control
same,T/C,"dose: 400.0 mg/kg/injection, vehicle: gum acacia",93 % of control and 99 % of control
N#CC(OC1OC(COC2OC(CO)C(O)C(O)C2O)C(O)C(O)C1O)c1ccccc1 (stereo unspecified),T/C,[3],101 % of control
same,T/C,[4],100 % of control
same,T/C,[5],104 % of control
same,T/C,"dose: 50.0 mg/kg/injection, vehicle: water",102 % of control
same,T/C,[6],105 % of control
same,T/C,"dose: 100.0 mg/kg/injection, vehicle: water",102 % of control
same,T/C,[7],106 % of control
same,T/C,"dose: 200.0 mg/kg/injection, vehicle: water",117 % of control
same,T/C,[8],101 % of control
same,T/C,"dose: 400.0 mg/kg/injection, vehicle: water",106 % of control
same,T/C,[9],100 % of control
same,T/C,"dose: 800.0 mg/kg/injection, vehicle: water",106 % of control
COC1=C(OC)C(=O)C(Sc2ccc3ccccc3c2)=CC1=O,T/C,[10],86 % of control and 97 % of control
same,T/C,[11],95 % of control
same,T/C,[12],96 % of control
same,T/C,[13],86 % of control
CCN1/C(=C/C(C)=C/c2sc3ccc4ccccc4c3[n+]2CC)Sc2ccc3ccccc3c21,T/C,"dose: 0.02 mg/kg/injection, vehicle: saline with Tween-80",95 % of control
same,T/C,"dose: 0.05 mg/kg/injection, vehicle: saline with Tween-80",106 % of control
Nc1ncnc2c1ncn2C1OC(COP(=O)(O)O)C(O)C1O (stereo unspecified),T/C,"dose: 40.0 mg/kg/injection, vehicle: water",86 % of control
same,T/C,"dose: 80.0 mg/kg/injection, vehicle: water",88 % of control
same,T/C,[6],109 % of control
same,T/C,"dose: 160.0 mg/kg/injection, vehicle: water",94 % of control
same,T/C,[7],109 % of control
same,T/C,"dose: 320.0 mg/kg/injection, vehicle: water",97 % of control
same,T/C,[8],115 % of control
Cc1c(-c2ccc(-c3ccccc3F)cc2)nc2ccc(F)cc2c1C(=O)O,T/C,"dose: 6.25 mg/kg/injection, vehicle: water",118 % of control and 102 % of control
same,T/C,"dose: 12.5 mg/kg/injection, vehicle: water",107 % of control
same,T/C,[4],124 % of control
Oc1ccc(OCc2ccccc2)cc1,T/C,[2],107 % of control and 100 % of control
same,T/C,[14],91 % of control and 102 % of control
same,T/C,[15],90 % of control and 96 % of control
same,T/C,[16],100 % of control and 107 % of control
same,T/C,"dose: 200.0 mg/kg/injection, vehicle: Klucel (hydroxypropylcellulose) (HPC)",98 % of control [middle of 4 runs]
same,T/C,"dose: 400.0 mg/kg/injection, vehicle: Klucel (hydroxypropylcellulose) (HPC)",102 % of control and 94 % of control
Cc1ccc(C(=O)OC(C(=O)O)C(OC(=O)c2ccc(C)cc2)C(=O)O)cc1 (stereo unspecified) (tested in a mixture with another compound),T/C,[17],93 % of control
same,T/C,[18],91 % of control
same,T/C,[19],111 % of control
Cc1cc(N/N=C/c2ccccn2)nc2ccccc12,T/C,[1],96 % of control
same,T/C,[2],94 % of control and 99 % of control
same,T/C,[14],97 % of control and 98 % of control
same,T/C,[15],93 % of control and 101 % of control
same,T/C,[16],103 % of control and 106 % of control
Cc1ccccc1N=C(c1ccccc1)C1C(=O)c2ccccc2C1=O,T/C,"dose: 50.0 mg/kg/injection, vehicle: DMSO",101 % of control
same,T/C,"dose: 100.0 mg/kg/injection, vehicle: DMSO",106 % of control
same,T/C,"dose: 200.0 mg/kg/injection, vehicle: DMSO",116 % of control
same,T/C,"dose: 400.0 mg/kg/injection, vehicle: DMSO",108 % of control
same,T/C,"dose: 800.0 mg/kg/injection, vehicle: DMSO",101 % of control
O=C(O)CP(=O)(O)O,T/C,"dose: 12.5 mg/kg/injection, vehicle: saline",100 % of control
same,T/C,[3],102 % of control and 107 % of control
same,T/C,[5],102 % of control and 106 % of control
same,T/C,[6],118 % of control and 121 % of control
same,T/C,[7],164 % of control
same,T/C,[8],189 % of control and 227 % of control
same,T/C,[9],206 % of control and 255 % of control
O=S(=O)(CCl)OCCCl,T/C,[10],97 % of control and 100 % of control
same,T/C,[11],108 % of control and 113 % of control and 103 % of control
same,T/C,[12],114 % of control and 115 % of control and 102 % of control
same,T/C,[13],109 % of control and 100 % of control
same,T/C,"dose: 100.0 mg/kg/injection, vehicle: saline with Tween-80",110 % of control
[Cl][Hg][Cl],T/C,"dose: 0.05 mg/kg/injection, vehicle: saline",105 % of control
same,T/C,"dose: 0.06 mg/kg/injection, vehicle: saline",96 % of control
same,T/C,"dose: 0.1 mg/kg/injection, vehicle: saline",97 % of control
same,T/C,"dose: 0.12 mg/kg/injection, vehicle: saline",104 % of control
same,T/C,"dose: 0.2 mg/kg/injection, vehicle: saline",100 % of control
same,T/C,"dose: 0.25 mg/kg/injection, vehicle: saline",104 % of control
same,T/C,"dose: 0.4 mg/kg/injection, vehicle: saline",102 % of control
same,T/C,"dose: 0.5 mg/kg/injection, vehicle: saline",86 % of control
same,T/C,"dose: 0.8 mg/kg/injection, vehicle: saline",86 % of control
CC(C)[NH-].CC(C)[NH-].[Cl][Pt+2][Cl],T/C,"dose: 1.56 mg/kg/injection, vehicle: other",122 % of control
same,T/C,"dose: 3.12 mg/kg/injection, vehicle: other",120 % of control
CN(C)N=Nc1ccc2c(c1)N(C)c1ccc(Cl)cc1S2,T/C,[17],99 % of control
same,T/C,[18],109 % of control
same,T/C,[19],114 % of control
same,T/C,"dose: 50.0 mg/kg/injection, vehicle: other",110 % of control
same,T/C,"dose: 100.0 mg/kg/injection, vehicle: other",114 % of control
C=C(C)[C@@H]1CC[C@]2(C(=O)OC)CC[C@]3(C)[C@H](CC[C@@H]4[C@@]5(C)CC[C@H](O)C(C)(C)[C@@H]5CC[C@]43C)[C@@H]12,T/C,[14],107 % of control
same,T/C,[15],86 % of control

# Source: PubChem BioAssay AID200 (DTP/NCI, 2004)
